Results on six compounds are retold here after patent publication US12723063B2, “GIPR-agonist compounds” (Eli Lilly and Company, priority 2019, dated 2026).

*1 amine or outer side, *2 acyl side, *3 side chain or, on linkers, in order; H or OH if unused. Where a SMILES comes first, the peptide text is derived from it. Side-chain parts run from the residue outwards. [ ]: non-standard residue; d: D form. The star is where a group is joined. C20 diacid = O=C(O)CCCCCCCCCCCCCCCCCCC(=O)*; C18 diacid = O=C(O)CCCCCCCCCCCCCCCCC(=O)*; αMePhe(2-F) = C[C@](N)(Cc1ccccc1F)C(=O)O; γGlu = O=C(O)[C@H](CCC(=O)[*:2])N[*:1]; αMeF = C[C@](N)(Cc1ccccc1)C(=O)O; 4Pal = N[C@@H](Cc1ccncc1)C(=O)O; αMeL = CC(C)C[C@](C)(N)C(=O)O; AEEA = NCCOCCOCC(=O)O; Aib = CC(C)(N)C(=O)O

What all share (experiment): cAMP functional assay (HTRF) in HEK293 cells in presence of 0.1% casein
Holding throughout (type): cell-based
For orientation: TR-FRET usually uses a lanthanide donor and a delayed reading to cut background.

In assay [1] the target is T1, human glucose-dependent insulinotropic peptide receptor (GIPR) (Homo sapiens, UniProt P48546).
T1 construct: expressed in transfected cells; host or cells: HEK293
T1 sequence (P48546 22-466): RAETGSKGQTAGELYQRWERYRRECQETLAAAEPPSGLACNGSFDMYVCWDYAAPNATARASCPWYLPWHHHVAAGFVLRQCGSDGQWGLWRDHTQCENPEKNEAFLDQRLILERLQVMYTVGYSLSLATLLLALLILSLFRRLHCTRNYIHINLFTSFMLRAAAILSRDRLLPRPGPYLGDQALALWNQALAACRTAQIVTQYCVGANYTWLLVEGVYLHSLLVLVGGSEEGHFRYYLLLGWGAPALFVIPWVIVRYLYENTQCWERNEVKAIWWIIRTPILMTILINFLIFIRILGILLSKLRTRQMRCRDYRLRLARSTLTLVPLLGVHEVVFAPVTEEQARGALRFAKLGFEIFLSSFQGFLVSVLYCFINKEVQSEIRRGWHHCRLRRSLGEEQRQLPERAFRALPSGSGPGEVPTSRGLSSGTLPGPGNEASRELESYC
The conditions noted are these: HEK293 cells expressing human GIPR, geometric mean, read-out: hGIPR cAMP Rel EC50 nM (SEM, n).

Assay [2] concerns the target T2, human GLP-1 receptor (GLP-1R) (Homo sapiens, UniProt P43220).
T2 construct: expressed in transfected cells; host or cells: HEK293
The settings on record: HEK293 cells expressing human GLP-1R, geometric mean, read-out: hGLP1R cAMP Rel EC50 nM (SEM, n).

Assay [3] has as its target T3, human glucagon receptor (GcgR) (Homo sapiens, UniProt P47871).
T3 construct: expressed in transfected cells; host or cells: HEK293
The settings on record: HEK293 cells expressing human GcgR, geometric mean, read-out: hGcgR cAMP Rel EC50 nM (SEM, n).

T3 sequence (P47871 26-477): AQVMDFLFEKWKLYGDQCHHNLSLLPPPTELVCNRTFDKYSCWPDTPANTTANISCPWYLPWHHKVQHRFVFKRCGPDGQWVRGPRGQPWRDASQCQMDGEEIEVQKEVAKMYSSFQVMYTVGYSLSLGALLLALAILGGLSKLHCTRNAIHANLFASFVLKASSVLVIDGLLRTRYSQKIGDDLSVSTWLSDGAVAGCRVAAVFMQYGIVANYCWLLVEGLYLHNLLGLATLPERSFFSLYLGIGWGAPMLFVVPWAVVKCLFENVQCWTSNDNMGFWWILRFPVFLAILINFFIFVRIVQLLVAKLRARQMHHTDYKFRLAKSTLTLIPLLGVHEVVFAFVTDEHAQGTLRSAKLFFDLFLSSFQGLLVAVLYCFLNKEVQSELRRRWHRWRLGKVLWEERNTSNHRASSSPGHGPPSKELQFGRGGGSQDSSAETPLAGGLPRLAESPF
T2 sequence (P43220 24-463): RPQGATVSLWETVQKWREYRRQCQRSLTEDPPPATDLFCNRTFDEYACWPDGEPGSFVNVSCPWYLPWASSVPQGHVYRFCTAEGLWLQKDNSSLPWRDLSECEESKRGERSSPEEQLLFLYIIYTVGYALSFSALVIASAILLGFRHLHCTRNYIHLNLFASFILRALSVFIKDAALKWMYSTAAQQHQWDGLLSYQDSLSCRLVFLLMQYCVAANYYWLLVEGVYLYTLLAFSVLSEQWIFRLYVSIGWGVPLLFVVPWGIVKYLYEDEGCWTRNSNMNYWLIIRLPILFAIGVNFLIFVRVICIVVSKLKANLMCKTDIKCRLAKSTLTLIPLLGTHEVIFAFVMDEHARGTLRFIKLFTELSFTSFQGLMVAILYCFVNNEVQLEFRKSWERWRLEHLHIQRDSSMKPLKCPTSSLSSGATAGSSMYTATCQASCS

As usually defined, the EC50 is the concentration needed to bring the measured effect to its halfway point. For the compound `CC[C@H](C)[C@H](NC(=O)[C@H](CO)NC(=O)[C@H](Cc1ccc(O)cc1)NC(=O)[C@H](CC(=O)O)NC(=O)[C@H](CO)NC(=O)[C@@H](NC(=O)[C@](C)(Cc1ccccc1)NC(=O)[C@@H](NC(=O)CNC(=O)[C@H](CCC(=O)O)NC(=O)C(C)(C)NC(=O)[C@@H](N)Cc1ccc(O)cc1)[C@@H](C)O)[C@@H](C)CC)C(=O)N[C@@H](C)C(=O)N[C@@H](CC(C)C)C(=O)N[C@@H](CC(=O)O)C(=O)N[C@@H](CCCCN)C(=O)N[C@@H](CCCCNC(=O)COCCOCCNC(=O)COCCOCCNC(=O)CC[C@H](NC(=O)CCCCCCCCCCCCCCCCCCC(=O)O)C(=O)O)C(=O)N[C@@H](Cc1c[nH]cn1)C(=O)N[C@@H](CCC(N)=O)C(=O)NC(C)(C)C(=O)N[C@@H](CC(=O)O)C(=O)N[C@@H](Cc1ccccc1)C(=O)N[C@H](C(=O)N[C@@H](CCC(=O)O)C(=O)N[C@@H](Cc1ccncc1)C(=O)N[C@@H](CC(C)C)C(=O)N[C@@H](CC(C)C)C(=O)N[C@@H](CCC(=O)O)C(=O)NCC(=O)NCC(=O)N1CCC[C@H]1C(=O)N[C@@H](CO)C(=O)N[C@@H](CO)C(=O)NCC(=O)N[C@@H](C)C(=O)N1CCC[C@H]1C(=O)N1CCC[C@H]1C(=O)N1CCC[C@H]1C(=O)N[C@@H](CO)C(N)=O)C(C)C` [Example 44] (H-Y[Aib]EGT[αMeF]ISDYSIALDKK([AEEA-AEEA-γGlu-C20 diacid])HQ[Aib]DFVE[4Pal]LLEGGPSSGAPPPS-NH2), the EC50 is 0.0084 nM in assay [1], 1180 nM in assay [2] and greater than 5000 nM in assay [3].
On the same counts, the results for `CC[C@H](C)[C@H](NC(=O)[C@H](Cc1ccccc1)NC(=O)[C@@H](NC(=O)CNC(=O)[C@H](CCC(=O)O)NC(=O)C(C)(C)NC(=O)[C@@H](N)Cc1ccc(O)cc1)[C@@H](C)O)C(=O)N[C@@H](CO)C(=O)N[C@@H](CC(=O)O)C(=O)N[C@@H](Cc1ccc(O)cc1)C(=O)N[C@@H](CO)C(=O)N[C@H](C(=O)N[C@@](C)(CC(C)C)C(=O)N[C@@H](CC(C)C)C(=O)N[C@@H](CC(=O)O)C(=O)N[C@@H](CCCCN)C(=O)N[C@@H](CCCCNC(=O)COCCOCCNC(=O)COCCOCCNC(=O)CC[C@H](NC(=O)CCCCCCCCCCCCCCCCCCC(=O)O)C(=O)O)C(=O)N[C@@H](Cc1c[nH]cn1)C(=O)N[C@@H](CCC(N)=O)C(=O)NC(C)(C)C(=O)N[C@@H](CCC(=O)O)C(=O)N[C@@H](Cc1ccccc1)C(=O)N[C@H](C(=O)N[C@@H](CCC(=O)O)C(=O)N[C@@H](Cc1ccc(O)cc1)C(=O)N[C@@H](CC(C)C)C(=O)N[C@@H](CC(C)C)C(=O)N[C@@H](CCC(=O)O)C(=O)N[C@@H](CCC(N)=O)C(=O)NCC(=O)N1CCC[C@H]1C(=O)N[C@@H](CO)C(=O)N[C@@H](CO)C(=O)NCC(=O)N[C@@H](C)C(=O)N1CCC[C@H]1C(=O)N1CCC[C@H]1C(=O)N1CCC[C@H]1C(=O)N[C@@H](CO)C(N)=O)C(C)C)[C@@H](C)CC` [Example 63] (H-Y[Aib]EGTFISDYSI[αMeL]LDKK([AEEA-AEEA-γGlu-C20 diacid])HQ[Aib]EFVEYLLEQGPSSGAPPPS-NH2) are 0.0398 nM, greater than 5000 nM and 1170 nM.
Take `CC[C@H](C)[C@H](NC(=O)[C@H](CO)NC(=O)[C@H](Cc1ccc(O)cc1)NC(=O)[C@H](CC(=O)O)NC(=O)[C@H](CO)NC(=O)[C@@H](NC(=O)[C@H](CC(C)C)NC(=O)[C@@H](NC(=O)CNC(=O)[C@H](CCC(=O)O)NC(=O)[C@@H](C)NC(=O)[C@@H](N)Cc1ccc(O)cc1)[C@@H](C)O)[C@@H](C)CC)C(=O)N[C@@H](CC(C)C)C(=O)N[C@@H](CC(C)C)C(=O)N[C@@H](CC(=O)O)C(=O)N[C@@H](CCCCN)C(=O)N[C@@H](CCCCNC(=O)COCCOCCNC(=O)COCCOCCNC(=O)CC[C@H](NC(=O)CCCCCCCCCCCCCCCCC(=O)O)C(=O)O)C(=O)N[C@@H](C)C(=O)N[C@@H](CCC(N)=O)C(=O)NC(C)(C)C(=O)N[C@@H](CC(=O)O)C(=O)N[C@@H](Cc1ccccc1)C(=O)N[C@H](C(=O)N[C@@H](CC(N)=O)C(=O)N[C@@H](Cc1c[nH]c2ccccc12)C(=O)N[C@@H](CC(C)C)C(=O)N[C@@H](CC(C)C)C(=O)N[C@@H](C)C(=O)N[C@@H](CCC(N)=O)C(=O)NCC(=O)N1CCC[C@H]1C(=O)N[C@@H](CO)C(=O)N[C@@H](CO)C(=O)NCC(=O)N[C@@H](C)C(=O)N1CCC[C@H]1C(=O)N1CCC[C@H]1C(=O)N1CCC[C@H]1C(=O)N[C@@H](CO)C(N)=O)C(C)C` [Example 32] (H-Y[dA]EGTLISDYSILLDKK([AEEA-AEEA-γGlu-C18 diacid])AQ[Aib]DFVNWLLAQGPSSGAPPPS-NH2): the EC50 is 0.00469 nM in assay [1], greater than 5000 nM in assay [2] and greater than 5000 nM in assay [3].
With `CC[C@H](C)[C@H](NC(=O)[C@H](CO)NC(=O)[C@H](Cc1ccc(O)cc1)NC(=O)[C@H](CC(=O)O)NC(=O)[C@H](CO)NC(=O)[C@@H](NC(=O)[C@](C)(Cc1ccccc1)NC(=O)[C@@H](NC(=O)CNC(=O)[C@H](CCC(=O)O)NC(=O)C(C)(C)NC(=O)[C@@H](N)Cc1ccc(O)cc1)[C@@H](C)O)[C@@H](C)CC)C(=O)N[C@@](C)(CC(C)C)C(=O)N[C@@H](CC(C)C)C(=O)N[C@@H](CC(=O)O)C(=O)N[C@@H](CCCCN)C(=O)N[C@@H](CCCCNC(=O)COCCOCCNC(=O)COCCOCCNC(=O)CC[C@H](NC(=O)CCCCCCCCCCCCCCCCCCC(=O)O)C(=O)O)C(=O)N[C@@H](Cc1c[nH]cn1)C(=O)N[C@@H](CCC(N)=O)C(=O)NC(C)(C)C(=O)N[C@@H](CC(=O)O)C(=O)N[C@@H](Cc1ccccc1)C(=O)N[C@H](C(=O)N[C@@H](CCC(=O)O)C(=O)N[C@@H](Cc1ccncc1)C(=O)N[C@@H](CC(C)C)C(=O)N[C@@H](CC(C)C)C(=O)N[C@@H](C)C(=O)NCC(=O)NCC(=O)N1CCC[C@H]1C(=O)N[C@@H](CO)C(=O)N[C@@H](CO)C(=O)NCC(=O)N[C@@H](C)C(=O)N1CCC[C@H]1C(=O)N1CCC[C@H]1C(=O)N1CCC[C@H]1C(=O)N[C@@H](CO)C(N)=O)C(C)C` [Example 50] (H-Y[Aib]EGT[αMeF]ISDYSI[αMeL]LDKK([AEEA-AEEA-γGlu-C20 diacid])HQ[Aib]DFVE[4Pal]LLAGGPSSGAPPPS-NH2), the EC50 was found to be 0.0212 nM in assay [1], 41 nM in assay [2] and 371 nM in assay [3].
Turning to `CC[C@H](C)[C@H](NC(=O)[C@H](Cc1ccccc1)NC(=O)[C@@H](NC(=O)CNC(=O)[C@H](CCC(=O)O)NC(=O)C(C)(C)NC(=O)[C@@H](N)Cc1ccc(O)cc1)[C@@H](C)O)C(=O)N[C@@H](CO)C(=O)N[C@@H](CC(=O)O)C(=O)N[C@@H](Cc1ccc(O)cc1)C(=O)N[C@@H](CO)C(=O)N[C@H](C(=O)N[C@@](C)(CC(C)C)C(=O)N[C@@H](CC(C)C)C(=O)N[C@@H](CC(=O)O)C(=O)N[C@@H](CCCCN)C(=O)N[C@@H](CCCCNC(=O)COCCOCCNC(=O)COCCOCCNC(=O)CC[C@H](NC(=O)CCCCCCCCCCCCCCCCCCC(=O)O)C(=O)O)C(=O)N[C@@H](Cc1c[nH]cn1)C(=O)N[C@@H](CCC(N)=O)C(=O)NC(C)(C)C(=O)N[C@@H](CC(=O)O)C(=O)N[C@@H](Cc1ccccc1)C(=O)N[C@H](C(=O)N[C@@H](CCC(=O)O)C(=O)N[C@@H](Cc1ccncc1)C(=O)N[C@@H](CC(C)C)C(=O)N[C@@H](CC(C)C)C(=O)N[C@@H](C)C(=O)NCC(=O)NCC(=O)N1CCC[C@H]1C(=O)N[C@@H](CO)C(=O)N[C@@H](CO)C(=O)NCC(=O)N[C@@H](C)C(=O)N1CCC[C@H]1C(=O)N1CCC[C@H]1C(=O)N1CCC[C@H]1C(=O)N[C@@H](CO)C(N)=O)C(C)C)[C@@H](C)CC` [Example 48], the EC50 in assay [1] was 0.0166 nM; in assay [2], greater than 5000 nM; in assay [3] it was 1360 nM.
Consider `CC[C@H](C)[C@H](NC(=O)[C@H](CO)NC(=O)[C@H](Cc1ccc(O)cc1)NC(=O)[C@H](CC(=O)O)NC(=O)[C@H](CO)NC(=O)[C@@H](NC(=O)[C@](C)(Cc1ccccc1F)NC(=O)[C@@H](NC(=O)CNC(=O)[C@H](CCC(=O)O)NC(=O)C(C)(C)NC(=O)[C@@H](N)Cc1ccc(O)cc1)[C@@H](C)O)[C@@H](C)CC)C(=O)N[C@@H](C)C(=O)N[C@@H](CC(C)C)C(=O)N[C@@H](CC(=O)O)C(=O)N[C@@H](CCCCN)C(=O)N[C@@H](CCCCNC(=O)COCCOCCNC(=O)COCCOCCNC(=O)CC[C@H](NC(=O)CCCCCCCCCCCCCCCCCCC(=O)O)C(=O)O)C(=O)N[C@@H](Cc1c[nH]cn1)C(=O)N[C@@H](CCC(N)=O)C(=O)NC(C)(C)C(=O)N[C@@H](CC(=O)O)C(=O)N[C@@H](Cc1ccccc1)C(=O)N[C@H](C(=O)N[C@@H](CCC(=O)O)C(=O)N[C@@H](Cc1ccc(O)cc1)C(=O)N[C@@H](CC(C)C)C(=O)N[C@@H](CC(C)C)C(=O)N[C@@H](CCC(=O)O)C(=O)NCC(=O)NCC(=O)N1CCC[C@H]1C(=O)N[C@@H](CO)C(=O)N[C@@H](CO)C(=O)NCC(=O)N[C@@H](C)C(=O)N1CCC[C@H]1C(=O)N1CCC[C@H]1C(=O)N1CCC[C@H]1C(=O)N[C@@H](CO)C(N)=O)C(C)C` [Example 37] (H-Y[Aib]EGT[αMePhe(2-F)]ISDYSIALDKK([AEEA-AEEA-γGlu-C20 diacid])HQ[Aib]DFVEYLLEGGPSSGAPPPS-NH2), for which the concentration giving a half-maximal response (EC50) in assay [1] is 0.036 nM; in assay [2], 61.1 nM; in assay [3], greater than 5000 nM.
